Assay results published in patent US20260007133A1, “HERBICIDAL COMPOSITION COMPRISING AZINE COMPOUNDS” (BASF SE, priority 2022, published 2026).
Like-named read-outs stand apart in the source and are kept apart here.

Legend:
Format in all cases: in vivo
Geranium pusillum [1] = assay: Greenhouse post-emergence (POST) herbicidal test on GERPU; conditions: Geranium pusillum, post-emergence, 480 h, POST, GERPU, 20 DAT
How it was run: (§1)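 Visual damage rating on a 0–100 scale, 0 meaning normal growth and 100 complete kill of above-ground parts, taken 20 days after treatment. Spray applied post-emergence to plants 3–15 cm tall in loamy sand with approximately 3.0% humus.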

Geranium pusillum [2] = assay: Greenhouse pre-emergence (PRE) herbicidal test on GERPU; conditions: Geranium pusillum, pre-emergence, 480 h, PRE, use rate 2 gai/ha, 20 DAT
How it was run: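 Herbicidal effect is scored from 0 (no damage) to 100 (no emergence or above-ground parts destroyed), 20 days after treatment. Application is pre-emergent onto sown pots, with components given as a 5% by weight emulsion concentrate in the spray liquor.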

Amaranthus retroflexus [3] = assay: Greenhouse post-emergence (POST) herbicidal test on AMARE; conditions: Amaranthus retroflexus, post-emergence, 480 h, POST, AMARE, 20 DAT, read-out: solo application % activity
How it was run: as §1

Euphorbia heterophylla = assay: Greenhouse pre-emergence (PRE) herbicidal test on EPHHL; conditions: Euphorbia heterophylla, pre-emergence; for inhibition at 8 g/ha: use rate 8 gai/ha
How it was run: (§2)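 Pre-emergence greenhouse assay: sown loamy-sand pots (humus approx. 3.0%) were kept under transparent hoods until rooting, then grown at species-appropriate 10-25° C or 20-35° C. Response ratings of 0 (no damage) to 100 (no plants emerged) were recorded 20 days after application.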

Abutilon theophrasti [4] = assay: Greenhouse pre-emergence (PRE) herbicidal test on ABUTH; conditions: Abutilon theophrasti, pre-emergence; for inhibition at 8 g/ha: use rate 8 gai/ha
How it was run: as §2

Digitaria sanguinalis = assay: Greenhouse post-emergence (POST) herbicidal test on DIGSA; conditions: for inhibition at 2 g/ha / inhibition at 8 g/ha: Digitaria sanguinalis, post-emergence; for inhibition at 2 g/ha: use rate 2 gai/ha
How it was run: as §1

Commelina benghalensis = assay: Greenhouse pre-emergence (PRE) herbicidal test on COMBE; conditions: Commelina benghalensis, pre-emergence, 480 h, PRE, COMBE, 20 DAT
How it was run: as §2

Abutilon theophrasti [5] = assay: Greenhouse post-emergence (POST) herbicidal test on ABUTH; conditions: Abutilon theophrasti, post-emergence, 480 h, POST, ABUTH, 20 DAT
How it was run: as §1

Lolium multiflorum = assay: Greenhouse pre-emergence (PRE) herbicidal test on LOLMU; conditions: Lolium multiflorum, pre-emergence; for inhibition at 8 g/ha: use rate 8 gai/ha
How it was run: as §2

Amaranthus retroflexus [6] = assay: Greenhouse pre-emergence (PRE) herbicidal test on AMARE; conditions: Amaranthus retroflexus, pre-emergence; AMARE PRE, use rate 2 gai/ha; read-out: % activity
How it was run: as §2

[7] = use rate 2 gai/ha, read-out: solo application % activity
[8] = use rate 8 gai/ha, read-out: solo application % activity

COc1c(Cl)c(F)c(F)c(F)c1Nc1nc(N)nc(C(C)(C)F)n1 [Compound I-4, N4-(5-Chloro-2,3,4-trifluoro-6-methoxy-phenyl)-6-(1-fluoro-1-methyl-ethyl)-1,3,5-triazine-2,4-diamine]
pest or weed control at 2 g/ha (Geranium pusillum [1]; I-4 solo 2 gai/ha): 10% | pest or weed control at 8 g/ha (Geranium pusillum [1]; I-4 solo 8 gai/ha): 30% | inhibition at 2 g/ha (Geranium pusillum [1]; [7]): 5% | inhibition at 8 g/ha (Geranium pusillum [1]; [8]): 25% | inhibition at 2 g/ha (Geranium pusillum [2]): 10% | inhibition at 2 g/ha (Amaranthus retroflexus [3]; use rate 2 gai/ha): 80% | inhibition at 8 g/ha (Amaranthus retroflexus [3]; use rate 8 gai/ha): 75% | pest or weed control at 8 g/ha (Euphorbia heterophylla; 480 h, PRE, EPHHL, I-4 solo 8 gai/ha, 20 DAT): 5% | inhibition at 2 g/ha (Euphorbia heterophylla; 480 h, PRE, EPHHL, use rate 2 gai/ha, 20 DAT, read-out: solo application % activity): 0% | inhibition at 8 g/ha (Euphorbia heterophylla; 480 h, PRE, EPHHL, 20 DAT, read-out: solo application % activity): 10% | inhibition at 8 g/ha (Euphorbia heterophylla; EPHHL PRE, read-out: % activity): 40% | inhibition at 8 g/ha (Abutilon theophrasti [4]; 240 h, PRE, 10 DAT, read-out: % activity): 50% | inhibition at 16 g/ha (Abutilon theophrasti [4]; 240 h, PRE, use rate 16 gai/ha, 10 DAT): 70% | pest or weed control at 2 g/ha (Abutilon theophrasti [4]; 480 h, PRE, ABUTH, I-4 solo 2 gai/ha, 20 DAT): 35% | inhibition at 8 g/ha (Abutilon theophrasti [4]; 480 h, PRE, ABUTH, 20 DAT, read-out: solo application % activity): 90% | inhibition at 2 g/ha (Abutilon theophrasti [4]; ABUTH PRE, use rate 2 gai/ha, read-out: % activity): 10% | inhibition at 8 g/ha (Abutilon theophrasti [4]; ABUTH PRE, read-out: % activity): 80% | % activity (Digitaria sanguinalis; DIGSA POST, use rate 8 gai/ha): 35% | inhibition at 2 g/ha (Digitaria sanguinalis; 480 h, POST, DIGSA, 20 DAT, read-out: solo application % activity): 0% | inhibition at 8 g/ha (Digitaria sanguinalis; 480 h, POST, DIGSA, use rate 8 gai/ha, 20 DAT, read-out: solo application % activity): 0% | inhibition at 2 g/ha (Digitaria sanguinalis; DIGSA POST, read-out: % activity): 10% | inhibition at 8 g/ha (Digitaria sanguinalis; DIGSA POST, use rate 8 gai/ha, read-out: % activity): 25% | pest or weed control at 2 g/ha (Commelina benghalensis; I-4 solo 2 gai/ha, read-out: % activity): 10% | inhibition at 8 g/ha (Commelina benghalensis; [8]): 10% | pest or weed control at 2 g/ha (Abutilon theophrasti [5]; I-4 solo 2 gai/ha): 20% | inhibition at 2 g/ha (Abutilon theophrasti [5]; [7]): 10% | inhibition at 8 g/ha (Abutilon theophrasti [5]; [8]): 10% | pest or weed control at 2 g/ha (Lolium multiflorum; 480 h, PRE, LOLMU, I-4 solo 2 gai/ha, 20 DAT, read-out: % activity): 10% | pest or weed control at 8 g/ha (Lolium multiflorum; 480 h, PRE, LOLMU, I-4 solo 8 gai/ha, 20 DAT): 65% | inhibition at 2 g/ha (Lolium multiflorum; 480 h, PRE, LOLMU, use rate 2 gai/ha, 20 DAT, read-out: solo application % activity): 5% | inhibition at 8 g/ha (Lolium multiflorum; 480 h, PRE, LOLMU, 20 DAT, read-out: solo application % activity): 60% | inhibition at 8 g/ha (Lolium multiflorum; LOLMU PRE, read-out: % activity): 35% | inhibition at 2 g/ha (Amaranthus retroflexus [6]): 70%
